From patent US6784153B1, “Methods of homing molecules to lung using membrane dipeptidase” (The Burnham Institute, priority 1998, dated 2004)
“Also recorded” adds a separate entry of the source.

Columns and labels:
[1] = molecular target: T1, MDP (Mus musculus, UniProt P31428); assay: inhibition of MDP activity (hydrolysis of Gly-D-Phe, fluorimetric); format: biochemical, murine; details: Gly-D-Phe 0.5 mM; extracts from MDP-expressing COS-1 cells; listed as GFE-1
T1 construct: The amplified 1.3 kb murine MDP cDNA was digested with KpnI and XbaI, and inserted into the same sites of the pcDNA3 expression vector; expressed in transfected cells; host or cells: COS-1 cells, pcDNA3 expression vector
T1 sequence (P31428 17-384): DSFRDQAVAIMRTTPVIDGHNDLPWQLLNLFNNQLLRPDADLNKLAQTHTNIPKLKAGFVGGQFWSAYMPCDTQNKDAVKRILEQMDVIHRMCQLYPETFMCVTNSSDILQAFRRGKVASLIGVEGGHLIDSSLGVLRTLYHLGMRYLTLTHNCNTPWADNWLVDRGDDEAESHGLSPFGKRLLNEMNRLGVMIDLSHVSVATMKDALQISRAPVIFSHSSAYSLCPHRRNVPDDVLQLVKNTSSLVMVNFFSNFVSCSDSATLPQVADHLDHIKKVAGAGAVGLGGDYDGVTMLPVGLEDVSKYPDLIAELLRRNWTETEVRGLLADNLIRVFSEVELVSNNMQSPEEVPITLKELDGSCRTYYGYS
Procedure: […] […] Fluorescence was measured using an fmax fluorescence microplate reader from Molecular Devices (Sunnyvale, Calif.).
Phage binding to COS-1 cells transfected with MDP was determined as follows. Briefly, 10^7 COS-1 cells were transfected with 10 μg of either the MDP expression vector or the vector alone. After 48 hours, cells were scraped gently from the dish, washed once, and subjected to the phage binding assay or membrane dipeptidase activity assay described above. For the phage binding assay, 5×10^6 cells and 10^10 transducing units (TU) of phage input were used. For measurement of membrane dipeptidase activity, 10^6 cells were lysed in 100 μl of PBS/octylglycoside without protease inhibitors. A 10 μl aliquot of the extract was used to measure MDP activity.
Fluorimetric detection of D-Phe was performed as described above.

[2] = system: lung; assay: in vivo homing of phage displaying peptides to lung; parameters: species or system mice; details: for homing of lung homing phage to control kidney or brain: control organs
Procedure: For lung and pancreas, a mixture of phage libraries containing 10^10 TU was diluted in 200 μl DMEM and injected into the tail vein of anesthetized BALB/c mice (2 month old; Harlan Sprague Dawley; San Diego Calif.); AVERTIN (0.017 ml/g) was used as anesthetic (Pasqualini and Ruoslahti, supra, 1996). After 1-4 minutes, mice were snap frozen in liquid nitrogen or, after about 5 minutes of phage circulation, the mice were perfused through the heart with 5-10 ml of DMEM (SIGMA; St. Louis Mo.). To recover the phage, the organs from the perfused mice or partially thawed organs from snap frozen mice were collected and weighed, then were homogenized in 1 ml DMEM-PI (DMEM containing protease inhibitors (PI); phenylmethyl sulfonyl fluoride (PMSF; 1 mM), aprotinin (20 μg/ml), leupeptin (1 μg/ml)).
Organ samples were washed 3 times with ice cold DMEM-PI containing 1% bovine serum albumin (BSA), then directly incubated with 1 ml K91-kan bacteria for 1 hr. Ten ml NZY medium containing 0.2 μg/ml tetracycline (NZY/tet) was added to the bacterial culture, the mixture was incubated in a 37° C. shaker for 1 hr, then 200 μl aliquots were plated in agar plates containing 40 μg/ml tetracycline (tet/agar).
Approximately 250 to 300 individual bacterial colonies containing phage recovered from the various organs or tissues were grown for 16 hr in 5 ml NZY/tet. In some experiments, approximately 1000 individual bacteria containing phage were picked and the phage were amplified in 2 ml of NZY/tet or the entire plate containing phage was scraped, pooled and grown in bulk and processed for injection. Where phage were cultured separately, the cultures were pooled and the phage were injected into mice or rats as described above for a second round of in vivo panning. In some experiments, a third or fourth round of panning was performed. Phage DNA was purified from individual bacterial colonies obtained and the DNA sequences encoding the peptides expressed by selected phage were determined (see Koivunen et al., supra, 1994b).
After two or three rounds of in vivo panning of mice injected with a cyclic CX3CX3CX3C (SEQ ID NO: 25) or a cyclic CX6C (SEQ ID NO: 26) phage display library, four peptides that homed to lung were identified.
To determine the specificity of lung homing of the individual peptides identified, phage displaying the peptides were amplified individually, diluted to the same input titer and administered to mice. Following administration, control kidney and brain organ was removed and the number of TU of phage in lung, kidney and brain was determined. The results shown in FIG. 2 reveal that 10× and 35× more phage having the peptide sequence CGFECVRQCPERC (SEQ ID NO: 1; GFE-1) bound to lung than to kidney and brain, respectively. […] The lung homing peptides CGFECVRQCPERC (SEQ ID NO: 1; GFE-1), CGFELETC (SEQ ID NO: 2; GFE-2), CTLRDRNC (SEQ ID NO: 15) and CIGEVEVC (SEQ ID NO: 16) are enriched in lung at 35×, 9×, 6× and 5×, respectively, over unselected phage (see FIG. 2).

[3] = system: C8161 human melanoma cells; assay: experimental lung metastasis of C8161 human melanoma cells; format: in vivo, mice; details: 10^5 C8161 cells coadministered with 250 μg peptide, tail vein; five weeks after injection; listed as GFE-1
Procedure: Experimental lung metastasis was induced in mice using C8161 human melanoma cells essentially as described in Arap et al., Science 279:377-380 (1998) and Pasqualini et al., Nature Med. 11:1197-1203, each of which is incorporated herein by reference. Briefly, C8161 cells were cultured to 75% confluence and then collected with 2.5 mM EDTA/PBS. The C8161 cancer cells were injected into the tail vein of female nude BALB/c mice (two months old) at a concentration of 10^5 cells per animal. Two sets of five mice were injected with the cells alone; cells with 250 μg control CARAC peptide (SEQ ID NO: 443) or cells with 250 μg GFE-1 peptide (SEQ ID NO: 1). Each injection was in a total volume of 200 μl.
Mice were sacrificed five weeks after injection, and the lungs collected and weighed.

[4] = individually amplified phage, FIG. 2

Sequence: CGFECVRQCPERC [lung homing peptide]
- inhibition of hydrolysis of Gly-D-Phe by MDP [1]: inhibits hydrolysis of the Gly-D-Phe substrate in a dose-dependent manner; also recorded: inhibited hydrolysis of the Gly-D-Phe substrate (0.5 mM) in a dose-dependent manner; also recorded: inhibition of MDP activity
- % OF MOTIF AMONG ALL CLONES ([2]; LUNG): 40%
- LUNG/BRAIN RATIO ([2]; LUNG section): 60
- homing of lung homing phage to control kidney or brain [2]: few phage detected in kidney or brain; also recorded: no selective homing to kidney or brain was detected
- homing of lung homing phage to control kidney or brain ([2]; listed as GFE-1): no specific phage homing to kidney was detected
- enriched in lung over unselected phage [2, 4]: 35 ×
- phage bound to lung than to brain [2, 4]: 35 ×
- phage bound to lung than to kidney [2, 4]: 10 ×
- lung metastasis (lung weight) [3]: inhibit experimental lung metastasis; also recorded: significantly less; also recorded: inhibits lung metastasis of human melanoma cells
